29 compounds from patent US20150299188A1, “HETEROCYCLIC COMPOUND” (priority 2012, published 2015) can be followed below.

Each structure is given as a SMILES string.

This experiment concerns FLAP (5-lipoxygenase activating protein). Briefly: In vitro binding test: displacement of [3H]-7-chloro-3-(5-((3-fluoropyridin-2-yl)methoxy)-2-methylphenyl)-3,4-dihydroquinazolin-2(1H)-one from Sf9 microsome fractions. The arrangement: species or system human and mouse. The note with it: Sf9 microsome fractions expressing FLAP; 100% = radioligand binding with 10 μM sodium 3-(3-(tert-butylsulfanyl)-1-(4-chlorobenzyl)-5-isopropyl-1H-indol-2-yl)-2,2-dimethylpropanoate, 0% = DMSO; test compound concentration not given. In short, it runs like this: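 Sf9 microsomes expressing human or mouse FLAP (2 μg/mL) preincubated with compound 10 min at room temperature, then 120 nM tritiated quinazolinone ligand added for 60 min; buffer 100 mM Tris-HCl pH 7.5 with NaCl, EDTA, DTT, glycerol, Tween20. Bound ligand filtered and counted by scintillation; 10 μM indole propanoate defines 100% inhibition, DMSO 0%.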
Turning to `Cc1cc2c(cc1N1Cc3c(cc(/C=C/C(=O)O)nc3C3CC3)NC1=O)OC(c1ncccc1F)CC2` (centres unmarked) [Example 91, (2E)-3-(5-cyclopropyl-3-(2-(3-fluoropyridin-2-yl)-6-methyl-3,4-dihydro-2H-chromen-7-yl)-2-oxo-1,2,3,4-tetrahydropyrido[4,3-d]pyrimidin-7-yl)acrylic acid], the “inhibitory rate (%)” value is recorded as 109%.
To `O=C1Nc2ccccc2CN1c1cc(OCc2ncccc2F)ccc1CNC1CC1` [Example 312, 3-(2-((cyclopropylamino)methyl)-5-((3-fluoropyridin-2-yl)methoxy)phenyl)-3,4-dihydroquinazolin-2(1H)-one] belongs 86%.
Take `O=C1Nc2c(ccnc2C(F)(F)F)CN1c1cc2c(cc1Cl)CCC(c1ncccc1F)O2` (centres unmarked) [Example 66, 3-(6-chloro-2-(3-fluoropyridin-2-yl)-3,4-dihydro-2H-chromen-7-yl)-8-(trifluoromethyl)-3,4-dihydropyrido[3,4-d]pyrimidin-2(1H)-one]: the “inhibitory rate (%)” value was found to be 98%.
For `COC(=O)c1ccc2c(c1)NC(=O)N(c1cc(OCc3nccc(Cl)c3F)ccc1C)C2` [Example 246, methyl 3-(5-((4-chloro-3-fluoropyridin-2-yl)methoxy)-2-methylphenyl)-2-oxo-1,2,3,4-tetrahydroquinazoline-7-carboxylate], the “inhibitory rate (%)” value amounted to 109%.
As to `COCCN1C(=O)N(c2cc(OCc3ncccc3F)ccc2C)Cc2c(Cl)cccc21` [Example 283, 5-chloro-3-(5-((3-fluoropyridin-2-yl)methoxy)-2-methylphenyl)-1-(2-methoxyethyl)-3,4-dihydroquinazolin-2(1H)-one], the “inhibitory rate (%)” value is on record as 100%.
`Cc1cc2c(cc1N1Cc3cc(Cl)ncc3NC1=O)OC(c1ncccc1F)CC2` (centres unmarked) [Example 43, 6-chloro-3-(2-(3-fluoropyridin-2-yl)-6-methyl-3,4-dihydro-2H-chromen-7-yl)-3,4-dihydropyrido[3,4-d]pyrimidin-2 (1H)-one]: the “inhibitory rate (%)” value came to 107%.
Turning to `Cc1cc2c(cc1N1Cc3c(Cl)cnc(C4CC4)c3NC1=O)OC(c1ncccc1F)CC2` (centres unmarked) [Example 142, 5-chloro-8-cyclopropyl-3-(2-(3-fluoropyridin-2-yl)-6-methyl-3,4-dihydro-2H-chromen-7-yl)-3,4-dihydropyrido[3,4-d]pyrimidin-2(1H)-one], the “inhibitory rate (%)” value stood at 102%.
Turning to `Cc1cc2c(cc1N1Cc3c(cc(-n4cc(CO)cn4)nc3C3CC3)NC1=O)OC(c1ncccc1F)CC2` (centres unmarked) [Example 123, 5-cyclopropyl-3-(2-(3-fluoropyridin-2-yl)-6-methyl-3,4-dihydro-2H-chromen-7-yl)-7-(4-(hydroxymethyl)-1H-pyrazol-1-yl)-3,4-dihydropyrido[4,3-d]pyrimidin-2(1H)-one], the “inhibitory rate (%)” value turned out to be 98%.
As to `Cc1cc2c(cc1N1Cc3c(cc(C4CN(C(=O)n5ccnc5)C4)nc3C3CC3)NC1=O)OC(c1ncccc1F)CC2` (centres unmarked) [Example 49, 5-cyclopropyl-3-(2-(3-fluoropyridin-2-yl)-6-methyl-3,4-dihydro-2H-chromen-7-yl)-7-(1-(1H-imidazol-1-ylcarbonyl)azetidin-3-yl)-3,4-dihydropyrido[4,3-d]pyrimidin-2(1H)-one], the “inhibitory rate (%)” value worked out at 120%.
On to `COc1ncc(C(F)(F)F)c2c1NC(=O)N(c1cc3c(cc1C)CCC(c1ncccc1F)O3)C2` (centres unmarked) [Example 107, 3-(2-(3-fluoropyridin-2-yl)-6-methyl-3,4-dihydro-2H-chromen-7-yl)-8-methoxy-5-(trifluoromethyl)-3,4-dihydropyrido[3,4-d]pyrimidin-2(1H)-one], for which the “inhibitory rate (%)” value is given as 93%.
Turning to `Cc1ccc(OCc2ncccc2F)cc1N1Cc2c(O)cccc2NC1=O` [Example 305, 3-(5-((3-fluoropyridin-2-yl)methoxy)-2-methylphenyl)-5-hydroxy-3,4-dihydroquinazolin-2(1H)-one], the “inhibitory rate (%)” value turned out to be 103%.
`Cc1cc2c(cc1N1Cc3c(C(F)(F)F)ncc(Br)c3NC1=O)OC(c1ncccc1F)CC2` (centres unmarked) [Example 87, 8-bromo-3-(2-(3-fluoropyridin-2-yl)-6-methyl-3,4-dihydro-2H-chromen-7-yl)-5-(trifluoromethyl)-3,4-dihydropyrido[4,3-d]pyrimidin-2(1H)-one]: the “inhibitory rate (%)” value is on record as 118%.
Regarding `O=C1Nc2ccccc2CN1c1cc(OCc2ncccc2F)ccc1Br` [Example 212, 3-(2-bromo-5-((3-fluoropyridin-2-yl)methoxy)phenyl)-3,4-dihydroquinazolin-2(1H)-one], the “inhibitory rate (%)” value is listed as 113%.
Consider `O=C1Nc2c(C3CC3)ncc(F)c2CN1c1cc2c(cc1Cl)CCC(c1ncccc1F)O2` (centres unmarked) [Example 166, 3-(6-chloro-2-(3-fluoropyridin-2-yl)-3,4-dihydro-2H-chromen-7-yl)-8-cyclopropyl-5-fluoro-3,4-dihydropyrido[3,4-d]pyrimidin-2(1H)-one], for which the “inhibitory rate (%)” value is given as 106%.
As for `Cc1cc2c(cc1N1Cc3c(ccnc3Cl)NC1=O)OC(c1ccccn1)CC2` (centres unmarked) [Example 51, 5-chloro-3-(6-methyl-2-(pyridin-2-yl)-3,4-dihydro-2H-chromen-7-yl)-3,4-dihydropyrido[4,3-d]pyrimidin-2(1H)-one], the “inhibitory rate (%)” value came out at 105%.
For `COc1ccc(CN2C(=O)N(c3cc(OCc4ncccc4F)ccc3Br)Cc3ccccc32)cc1` [Example 258, 3-(2-bromo-5-((3-fluoropyridin-2-yl)methoxy)phenyl)-1-(4-methoxybenzyl)-3,4-dihydroquinazolin-2(1H)-one], the “inhibitory rate (%)” value was 116%.
On to `Cc1ccc(OCc2c(F)cccc2F)cc1-n1c(=O)[nH]c2cc(C(C)(C)O)ccc2c1=O` [Example 336, 3-(5-((2,6-difluorobenzyl)oxy)-2-methylphenyl)-7-(2-hydroxypropan-2-yl)quinazoline-2,4(1H,3H)-dione], for which the “inhibitory rate (%)” value was found to be 108%.
On to `O=C1Nc2ccnc(Cl)c2CN1c1cc2c(cc1Cl)CC[C@@H](c1ncccc1F)O2` [Example 2, 5-chloro-3-((2S)-6-chloro-2-(3-fluoropyridin-2-yl)-3,4-dihydro-2H-chromen-7-yl)-3,4-dihydropyrido[4,3-d]pyrimidin-2(1H)-one], for which the “inhibitory rate (%)” value was determined as 102%.
To `Cc1cc2c(cc1N1Cc3c(Cl)cnc(N(C)C)c3NC1=O)OC(c1ncccc1F)CC2` (centres unmarked) [Example 165, 5-chloro-8-(dimethylamino)-3-(2-(3-fluoropyridin-2-yl)-6-methyl-3,4-dihydro-2H-chromen-7-yl)-3,4-dihydropyrido[3,4-d]pyrimidin-2(1H)-one] belongs 104%.
Turning to `Cc1cc2c(cc1N1Cc3cnc(Cl)cc3NC1=O)OC(c1ncccc1F)CC2` (centres unmarked) [Example 47, 7-chloro-3-(2-(3-fluoropyridin-2-yl)-6-methyl-3,4-dihydro-2H-chromen-7-yl)-3,4-dihydropyrido[4,3-d]pyrimidin-2(1H)-one], the “inhibitory rate (%)” value came to 114%.
Regarding `CC(C)(C)Cc1ccc(OCc2c(F)cccc2F)cc1N1Cc2ccc(C(C)(C)O)cc2NC1=O` [Example 293, 3-(5-((2,6-difluorobenzyl)oxy)-2-(2,2-dimethylpropyl)phenyl)-7-(2-hydroxypropan-2-yl)-3,4-dihydroquinazolin-2(1H)-one], the “inhibitory rate (%)” value stood at 84%.
Turning to `O=C1Nc2cc(OC(F)F)nc(C3CC3)c2CN1c1cc2c(cc1Cl)CC[C@@H](c1ncccc1F)O2` [Example 20, 3-((2S)-6-chloro-2-(3-fluoropyridin-2-yl)-3,4-dihydro-2H-chromen-7-yl)-5-cyclopropyl-7-(difluoromethoxy)-3,4-dihydropyrido[4,3-d]pyrimidin-2(1H)-one], the “inhibitory rate (%)” value turned out to be 96%.
To `Cc1ccc(OCc2ncccc2F)cc1N1Cc2c(F)cccc2NC1=O` [Example 281, 5-fluoro-3-(5-((3-fluoropyridin-2-yl)methoxy)-2-methylphenyl)-3,4-dihydroquinazolin-2(1H)-one] belongs 107%.
Regarding `COc1cccc2[nH]c(=O)n(-c3cc(OCc4ncccc4F)ccc3C)c(=O)c12` [Example 365, 3-(5-((3-fluoropyridin-2-yl)methoxy)-2-methylphenyl)-5-methoxyquinazoline-2,4(1H,3H)-dione], the “inhibitory rate (%)” value was found to be 94%.
`Cn1cc(-c2nccc3c2CN(c2cc4c(cc2Cl)CCC(c2ncccc2F)O4)C(=O)N3)cn1` (centres unmarked) [Example 62, 3-(6-chloro-2-(3-fluoropyridin-2-yl)-3,4-dihydro-2H-chromen-7-yl)-5-(1-methyl-1H-pyrazol-4-yl)-3,4-dihydropyrido[4,3-d]pyrimidin-2(1H)-one]: the “inhibitory rate (%)” value turned out to be 100%.
For the compound `Cn1cc(-c2ncc(C3CC3)c3c2NC(=O)N(c2cc4c(cc2Cl)CCC(c2ncccc2F)O4)C3)cn1` (centres unmarked) [Example 163, 3-(6-chloro-2-(3-fluoropyridin-2-yl)-3,4-dihydro-2H-chromen-7-yl)-5-cyclopropyl-8-(1-methyl-1H-pyrazol-4-yl)-3,4-dihydropyrido[3,4-d]pyrimidin-2(1H)-one], the “inhibitory rate (%)” value is on record as 98%.
For `COC(=O)c1ccc2c(c1)NC(=O)N(c1cc(OCc3c(F)cccc3F)ccc1C(=O)OC)C2` [Example 176, methyl 3-(5-((2,6-difluorobenzyl)oxy)-2-(methoxycarbonyl)phenyl)-2-oxo-1,2,3,4-tetrahydroquinazoline-7-carboxylate], the “inhibitory rate (%)” value stood at 95%.
With `Cc1ncc(Cl)c2c1NC(=O)N(c1cc3c(cc1Cl)CCC(c1ncccc1F)O3)C2` (centres unmarked) [Example 7, 5-chloro-3-(6-chloro-2-(3-fluoropyridin-2-yl)-3,4-dihydro-2H-chromen-7-yl)-8-methyl-3,4-dihydropyrido[3,4-d]pyrimidin-2(1H)-one], the “inhibitory rate (%)” value is given as 98%.
Consider `O=C(c1cc2c(c(C3CC3)n1)CN(c1cc3c(cc1Cl)CCC(c1ncccc1F)O3)C(=O)N2)N1CC(O)C1` (centres unmarked) [Example 112, 3-(6-chloro-2-(3-fluoropyridin-2-yl)-3,4-dihydro-2H-chromen-7-yl)-5-cyclopropyl-7-((3-hydroxyazetidin-1-yl)carbonyl)-3,4-dihydropyrido[4,3-d]pyrimidin-2(1H)-one], for which the “inhibitory rate (%)” value is 103%.
